From patent US20250145605A1, “CRYSTAL FORM AND SALT OF PHENOTHIAZINE COMPOUND, PREPARATION METHOD THEREFOR AND USE THEREOF” (CHENGDU HENGHAO INNOVATIVE SCIENCE AND TECHNOLOGY CO., LTD., priority 2022, published 2025)

Key:
[1] = tested on: mouse hippocampal neuronal cells HT22; assay: Inhibition of Erastin-induced ferroptosis, CCK8 cell viability test, HT22; assay type: cell-based; details: 24 h
Protocol: (§1) Experimental method: In this example, a screening model for ferroptosis was constructed to investigate a ferroptosis inhibitor. Specifically, the screening model for ferroptosis was mainly based on the CCK8 cell viability test. Firstly, mouse hippocampal neuronal cells HT22 and human neuroblastoma SH-SY5Y cells were cultured in a dish. 80 μL of cells (5000 cells/well) in logarithmic growth phase were seeded to a 96-well plate per well, and then cultured in an incubator at 37° C., 5% CO2 to allow adhesion of cells. After 24 h, 10 μL of the compound of the present disclosure at various concentrations prepared with the specified medium and 10 μL of Erastin (ferroptosis inducer) at a final concentration of […] were added. 3 replicate wells were set for each compound to ensure the accuracy of the results. A positive control group (10 μL of a certain concentration of the compound Ferrostain-1 and 10 μL of Erastin (ferroptosis inducer) prepared with the same medium were added with reference to the above description). […] The absorbance at 450 nm was detected by a microplate reader to calculate the inhibition rate of ferroptosis by the drug. […]
(§2) The inhibition rate change curve was fitted and the IC50 was calculated by the software GraphPadPrism6.

[2] = tested on: human neuroblastoma SH-SY5Y cells; assay: Inhibition of Erastin-induced ferroptosis, CCK8 cell viability test, SH-SY5Y; assay type: cell-based; details: Erastin at a final concentration of 10 M, 24 h
Protocol: as §1, §2

| IC50 ([2]; Homo sapiens) [nM] | IC50 [2] [nM] | Structure (SMILES) | IC50 ([1]; Mus musculus, HT-22, HT22, Erastin at a final concentration of 10 µM) [nM] | IC50 ([1]; HT22, Erastin at a final concentration of 10 µM) [nM] |
| --- | --- | --- | --- | --- |
| 1.41 | – | CC(c1ccc(N2CCN(C)CC2)cc1)c1ccc2c(c1)Nc1ccccc1S2 (stereo not shown) | 2.87 | – |
| – | 53.9 | CCOC(=O)c1ccc(NC2CCCCC2)c(N)c1 [Ferrostain-1] | – | 96.2 |
